Where two headings read alike, the source gives them in different places. No end group written: not given here.
Assays:
[1] = system: human red blood cells (RBCs); assay: Hemolysis assay; assay type: cell-based
Procedure: (§1) Cytotoxicity was evaluated using human embryonic kidney (HEK293) and human red blood cells (RBCs). HEK293 cells were cultured in DMEM supplemented with 10% FBS. Cells were seeded in 384-well plates and incubated with peptides for 24 h. Cell viability was assessed using the resazurin reduction assay. Hemolysis assays were performed using fresh human RBCs incubated with peptides for 1 h at 37 °C.

[2] = system: human embryonic kidney (HEK293) cells; assay: Cytotoxicity, resazurin reduction assay; assay type: cell-based
Procedure: as §1

[3] = system: Staphylococcus aureus ATCC 43300 (MRSA); assay: microbe, parasite or virus in culture; settings: for MIC: Staphylococcus aureus, read-out: MIC against MRSA; for MIC, Sa (Table 1S): supplement Table 1S, unit not given (main-text tables: μg/mL), capital letter component 95 mg
Procedure: (§2) Antimicrobial activity was evaluated using the Community for Open Antimicrobial Drug Discovery (CO-ADD) screening platform. Minimum inhibitory concentrations (MICs) were determined against the following five bacterial strains: Escherichia coli (E. coli) ATCC 25922, Klebsiella pneumoniae ATCC 700603, Acinetobacter baumannii ATCC 19606, Pseudomonas aeruginosa ATCC 27853, and Staphylococcus aureus ATCC 43300.
(§3) Bacteria were cultured in cation-adjusted Mueller–Hinton broth (CAMHB) at 37 °C overnight. Cultures were diluted 40-fold in fresh broth and incubated at 37 °C for 1.5–3 h. Mid-log phase cultures were then diluted and added to the compound-containing plates, giving a final cell density of 5 × 10^5 CFU/mL in a total volume of 50 μL. Plates were incubated at 37 °C for 18 h without shaking.
(§4) Bacterial growth inhibition was determined by measuring the absorbance at 600 nm (OD600) using a Tecan M1000 Pro monochromator plate reader. The percentage of growth inhibition was calculated using negative (media only) and positive (bacteria without inhibitors) controls. Significance was determined by modified Z scores calculated using the median and MAD of the samples on the same plate. Samples with inhibition values above 80% and Z scores above 2.5 for either replicate were classified as active.
(§5) The fractional inhibitory concentration (FIC) index was calculated to determine synergy, additivity, or antagonism.
(§6) Colistin and VAN were used as positive bacterial inhibitor standards for Gram-negative and Gram-positive bacteria, respectively. The quality control (QC) of the assays was determined by the antimicrobial controls and the Z’ factor (using positive and negative controls).
(§7) Percentage growth inhibition was calculated using negative (media only) and positive (bacteria without inhibitors) controls. Modified Z scores were used to determine the significance of the inhibition values. Samples with inhibition values of above 80% and Z scores of above 2.5 for either replicate were classified as active. Data are presented as the mean ± standard deviation from at least three independent experiments.

[4] = system: Acinetobacter baumannii ATCC 19606; assay: microbe, parasite or virus in culture; settings: for MIC: Acinetobacter baumannii, ATCC19606, 18 h, read-out: MIC against Ab; for MIC, Ab (Table 1S): supplement Table 1S, unit not given (main-text tables: μg/mL), capital letter component 95 mg
Procedure: as §2, §3, §4, §5, §6, §7

[5] = system: Pseudomonas aeruginosa ATCC 27853; assay: microbe, parasite or virus in culture; settings: for MIC: Pseudomonas aeruginosa, ATCC27853, 18 h, read-out: MIC against Pa; for MIC, Pa (Table 1S): supplement Table 1S, unit not given (main-text tables: μg/mL), capital letter component 95 mg
Procedure: as §2, §3, §4, §5, §6, §7

[6] = system: Escherichia coli (E. coli) ATCC 25922; assay: microbe, parasite or virus in culture; settings: for MIC: Escherichia coli, ATCC25922, 18 h, read-out: MIC against E. coli; for MIC, Ec (Table 1S): supplement Table 1S, unit not given (main-text tables: μg/mL), capital letter component 95 mg
Procedure: as §2, §3, §4, §5, §6, §7

human cells = assay type: cell-based
[7] = system: Gram-positive and Gram-negative bacteria; assay: Structure-activity summary: antimicrobial activity (Table 5); assay type: cell-based; settings: summary in words
[8] = summary in words, Table 5; earlier biophysical studies ref 20; cited from earlier work
Source text: Table 5 Structure–Activity Relationships of (RW)n Peptides ^a | column: Thermal stability

[9] = system: Klebsiella pneumoniae ATCC 700603; assay: microbe, parasite or virus in culture; settings: for MIC against Kp: ATCC 700603, 18 h; for MIC, Kp (Table 1S): supplement Table 1S, unit not given (main-text tables: μg/mL), capital letter component 95 mg, minor letter component 5 mg
Procedure: as §2, §3, §4, §5, §6, §7

[10] = S. aureus ATCC 43300, CAMHB, 5 × 10^5 CFU/mL, 37 °C, 18 h, OD600, mixtures: capital letter component 95 mg, minor letter component 5 mg

Molecule	MIC, Hm (Table 1S) [1]	MIC, Hk (Table 1S) [2] [µg/mL]	MIC, Sa (Table 1S) ([3]; minor letter component 5 mg)	MIC, Ab (Table 1S) ([4]; minor letter component 5 mg)	MIC, Pa (Table 1S) ([5]; minor letter component 5 mg)	MIC, Ec (Table 1S) ([6]; minor letter component 5 mg)	Toxicity (human cells)	RBC hemolysis MIC [1] [µg/mL]	Antimicrobial activity [7]	Thermal stability [8]	HEK293 cells MIC ([2]; 24 h) [µg/mL]	MIC against MRSA ([3]; ATCC 43300, 18 h) [µg/mL]	MIC against Ab ([4]; ATCC 19606, 18 h) [µg/mL]	MIC against Pa ([5]; ATCC 27853, 18 h) [µg/mL]	MIC against E. coli ([6]; ATCC 25922, 18 h) [µg/mL]	MIC against Kp [9] [µg/mL]	MIC, Kp (Table 1S) [9]	other results
CC1(C)S[C@@H]2[C@H](NC(=O)[C@H](N)c3ccccc3)C(=O)N2[C@H]1C(=O)O [AMP, ampicillin, reference compound]	> 32	> 32	32	> 32	> 32	8	–	–	–	–	–	–	–	–	–	–	–	MIC ([3]; 18 h): 32 µg/mL; MIC [4]: > 32 µg/mL; MIC [5]: > 32 µg/mL; MIC [6]: 8 µg/mL
CC[C@H](C)[C@H](N)C(=O)N[C@@H](CC(C)C)C(=O)N1CCC[C@H]1C(=O)N[C@@H](Cc1c[nH]c2ccccc12)C(=O)N[C@@H](CCCCN)C(=O)N[C@@H](Cc1c[nH]c2ccccc12)C(=O)N1CCC[C@H]1C(=O)N[C@@H](Cc1c[nH]c2ccccc12)C(=O)N[C@@H](Cc1c[nH]c2ccccc12)C(=O)N1CCC[C@H]1C(=O)N[C@@H](Cc1c[nH]c2ccccc12)C(=O)N[C@@H](CCCN=C(N)N)C(=O)N[C@@H](CCCN=C(N)N)C(N)=O [Indolicidin, reference compound]	–	–	–	–	–	–	–	–	–	–	–	–	–	–	–	–	–	RBC hemolysis MIC ([1]; fresh human RBCs, 1 h, 37 °C): >32 µg/mL
N=C(N)NCCC[C@H](NC(=O)[C@H](Cc1c[nH]c2ccccc12)NC(=O)[C@H](CCCNC(=N)N)NC(=O)[C@H](Cc1c[nH]c2ccccc12)NC(=O)[C@H](CCCNC(=N)N)NC(=O)[C@H](Cc1c[nH]c2ccccc12)NC(=O)[C@H](CCCNC(=N)N)NC(=O)[C@H](Cc1c[nH]c2ccccc12)NC(=O)[C@H](CCCNC(=N)N)NC(=O)[C@H](Cc1c[nH]c2ccccc12)NC(=O)[C@@H](N)CCCNC(=N)N)C(=O)N[C@@H](Cc1c[nH]c2ccccc12)C(N)=O [RW6]	<= 0.25	> 32	<= 0.25	> 32	> 32	<= 0.25	Moderate	≤0.25	High	High	>32	≤0.25	>32	>32	≤0.25	>32	> 32	–
CN[C@H](CC(C)C)C(=O)N[C@H]1C(=O)N[C@@H](CC(N)=O)C(=O)N[C@H]2C(=O)N[C@H]3C(=O)N[C@H](C(=O)N[C@H](C(=O)O)c4cc(O)cc(O)c4-c4cc3ccc4O)[C@H](O)c3ccc(c(Cl)c3)Oc3cc2cc(c3O[C@@H]2O[C@H](CO)[C@@H](O)[C@H](O)[C@H]2O[C@H]2C[C@](C)(N)[C@H](O)[C@H](C)O2)Oc2ccc(cc2Cl)[C@H]1O [VAN, vancomycin, reference compound]	–	–	<= 0.25	> 32	> 32	> 32	–	–	–	–	–	–	–	–	–	–	> 32	MIC, Hm (Table 1S) ([1]; supplement Table 1S, Hm = human RBC hemolysis, 1 h, 37 °C, unit not given (main-text tables: μg/mL), capital 95 mg, minor letter 5 mg, in µg/mL): 28.69; HEK293 cytotoxic concentration ([2]; supplement Table 1S, Hk = HEK293 cytotoxicity, 24 h, resazurin, unit not given (main-text tables: μg/mL), capital 95 mg, minor letter 5 mg): > 32 µg/mL; MIC ([3]; 18 h): ≤ 0.25 µg/mL; MIC [4]: > 32 µg/mL; MIC [5]: > 32 µg/mL; MIC [6]: > 32 µg/mL; MIC ([9]; Klebsiella pneumoniae, ATCC700603, 18 h, read-out: MIC against Kp): > 32 µg/mL
RWRWPRWRWPRWRW-NH2 [RW6-2P]	> 32	> 32	<= 0.25	2	<= 0.25	16	–	>32	–	–	>32	≤0.25	2	≤0.25	16	>32	> 32	MIC against MRSA [3, 10]: ≤ 0.25 µg/mL
RWRWRWRW-NH2 [RW4]	> 32	> 32	8	> 32	> 32	> 32	Low	>32	Moderate	Low	>32	8	>32	>32	–	>32	> 32	–
RWRWRWRWRWRWRWRW-NH2 [RW8]	0.4523	> 32	2	32	> 32	32	Moderate	0.4523	High (Gram+), Moderate (Gram−)	High	>32	2	32	>32	32	>32	> 32	–
penicillin [reference compound]	> 32	> 32	8	> 32	> 32	32	–	–	–	–	–	–	–	–	–	–	–	MIC against MRSA [3, 10]: 8 µg/mL; MIC against Ab ([4]; A. baumannii ATCC 19606, CAMHB, 5 × 10^5 CFU/mL, 37 °C, 18 h, OD600, mixtures: capital letter component 95 mg, minor letter component 5 mg): >32 µg/mL; MIC against Pa ([5]; P. aeruginosa ATCC 27853, CAMHB, 5 × 10^5 CFU/mL, 37 °C, 18 h, OD600, mixtures: capital letter component 95 mg, minor letter component 5 mg): >32 µg/mL; MIC against E. coli ([6]; E. coli ATCC 25922, CAMHB, 5 × 10^5 CFU/mL, 37 °C, 18 h, OD600, mixtures: capital letter component 95 mg, minor letter component 5 mg): 32 µg/mL
